Test results from patent publication US20150080438A1, “6,7-Dihydro-5H-benzo[7]annulene derivatives, processes for their preparation, pharmaceutical products comprising them and their use for preparing medicaments” (Bayer Intellectual Property GmbH, priority 2011, published 2015).

These compounds were tested against T1, oestrogen receptor (ER) (Homo sapiens, UniProt P03372) (assay: Anti-oestrogenic action in MVLN cells (inhibition of estradiol-induced luciferase, transactivation antagonism)). Conditions: inhibition of estradiol-induced luciferase activity, read-out: Anti-oestrogenic action in vitro: MVLN transactivation antagonism IC50.
T1 construct: These MVLN cells express, along with the functional oestrogen receptor (ER), a reporter construct; endogenous in cells; host or cells: MVLN cells (MCF7 derivative with ER-responsive luciferase reporter)
T1 sequence (P03372 1-595): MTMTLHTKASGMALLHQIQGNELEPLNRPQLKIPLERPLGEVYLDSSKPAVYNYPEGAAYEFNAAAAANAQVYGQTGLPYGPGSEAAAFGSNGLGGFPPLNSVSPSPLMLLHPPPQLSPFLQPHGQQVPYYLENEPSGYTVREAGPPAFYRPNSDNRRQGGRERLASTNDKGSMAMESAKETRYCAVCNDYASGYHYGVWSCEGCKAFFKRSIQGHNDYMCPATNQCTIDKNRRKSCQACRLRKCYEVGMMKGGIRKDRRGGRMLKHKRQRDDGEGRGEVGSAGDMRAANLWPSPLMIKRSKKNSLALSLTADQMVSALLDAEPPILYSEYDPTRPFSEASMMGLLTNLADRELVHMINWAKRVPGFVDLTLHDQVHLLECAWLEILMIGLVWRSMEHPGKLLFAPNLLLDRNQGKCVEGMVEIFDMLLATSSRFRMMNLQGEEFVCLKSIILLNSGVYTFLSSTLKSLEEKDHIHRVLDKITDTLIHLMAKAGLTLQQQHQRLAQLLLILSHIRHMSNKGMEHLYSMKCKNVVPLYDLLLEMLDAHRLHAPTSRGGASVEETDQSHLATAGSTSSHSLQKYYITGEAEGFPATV
Type: cell-based
Excerpt: The anti-oestrogenic action of the claimed pharmacological compounds was investigated in so-called MVLN cells in vitro. MVLN cells are derivatives of the hormone-responsive MCF7 breast cancer cells known by a person skilled in the art. These MVLN cells express, along with the functional oestrogen receptor (ER), a reporter construct, which under ER-activation expresses luciferase. Determination of the activity of the induced luciferase permits a direct conclusion on the oestrogen properties of substances. To investigate the anti-oestrogenic properties of the pharmacological compounds, they were investigated in the presence of oestrogen for their potential for inhibiting the luciferase signal induced by estradiol.
The claimed pharmacological test substances were investigated in MVLN cells for their anti-oestrogenic potential, as described (see Table 2).

Row | SMILES | IC50 [nM]
1 | COCCCN(CCCCCCC1=C(c2ccc(F)c(O)c2)CCCc2cc(O)c(F)cc21)CCC[S+]([O-])CCCC(F)(F)C(F)(F)F (racemic) [Example 132, 2-Fluoro-8-(4-fluoro-3-hydroxyphenyl)-9-{6-[(3-methoxypropyl){3-[(RS)-(4,4,5,5,5-pentafluoropentyl)sulphinyl]propyl}amino]hexyl}-6,7-dihydro-5H-benzo[7]annulen-3-ol] | 5
2 | CN(CCCCCCC1=C(c2ccc(F)c(O)c2)CCCc2cc(O)ccc21)CCCCS(=O)(=O)CCCC(F)(F)C(F)(F)F [Example 31, 8-(4-Fluoro-3-hydroxyphenyl)-9-[6-(methyl{4-[(4,4,5,5,5-pentafluoropentyl)sulphonyl]butyl}amino)hexyl]-6,7-dihydro-5H-benzo[7]annulen-3-ol] | 3
3 | O=S(=O)(CCCN(CCCO)CCCCCCC1=C(c2ccccc2)CCCc2cc(O)ccc21)CCCC(F)(F)C(F)(F)F [Example 73, 9-{6-[(3-Hydroxypropyl){3-[(4,4,5,5,5-pentafluoropentyl)sulphonyl]propyl}amino]hexyl}-8-phenyl-6,7-dihydro-5H-benzo[7]annulen-3-ol] | 17
4 | CN(CCCCCC1=C(c2ccccc2)CCCc2cc(O)ccc21)CCCCS(=O)(=O)CCCC(F)(F)C(F)(F)F [Example 85, 9-[5-(Methyl{4-[(4,4,5,5,5-pentafluoropentyl)sulphonyl]butyl}amino)pentyl]-8-phenyl-6,7-dihydro-5H-benzo[7]annulen-3-ol] | 40
5 | CN(CCCCCCC1=C(c2ccc(F)c(O)c2)CCCc2cc(O)c(F)cc21)CCCS(=O)(=O)CCCC(F)(F)C(F)(F)F [Example 101, 2-Fluoro-8-(4-fluoro-3-hydroxyphenyl)-9-[6-(methyl{3-[(4,4,5,5,5-pentafluoropentyl)sulphonyl]propyl}amino)hexyl]-6,7-dihydro-5H-benzo[7]annulen-3-ol] | 3
6 | CN(CCCCCCC1=C(c2ccccc2)CCCc2cc(O)ccc21)CCC[S+]([O-])CCC(F)(F)C(F)(F)F (racemic) [Example 61, 9-[6-(Methyl{3-[(RS)-(3,3,4,4,4-pentafluorobutyl)sulphinyl]propyl}amino)hexyl]-8-phenyl-6,7-dihydro-5H-benzo[7]annulen-3-ol] | 9
7 | CC(C)(O)CN(CCCCCCC1=C(c2cccc(O)c2)CCCc2cc(O)ccc21)CCCS(=O)(=O)CCCC(F)(F)C(F)(F)F [Example 93, 9-{6-[(2-Hydroxy-2-methylpropyl){3-[(4,4,5,5,5-pentafluoropentyl)sulphonyl]propyl}amino]hexyl}-8-(3-hydroxyphenyl)-6,7-dihydro-5H-benzo[7]annulen-3-ol] | 1
8 | CC(C)(O)CN(CCCCCCC1=C(c2ccccc2)CCCc2cc(O)ccc21)CCCS(=O)(=O)CCC(F)(F)F [Example 83, 9-{6-[(2-Hydroxy-2-methylpropyl){3-[(3,3,3-trifluoropropyl)sulphonyl]propyl}amino]hexyl}-8-phenyl-6,7-dihydro-5H-benzo[7]annulen-3-ol] | 7
9 | CN(CCCCCC1=C(c2ccccc2)CCCc2cc(O)ccc21)CCCC[S+]([O-])CCCC(F)(F)C(F)(F)F (racemic) [Example 84, 9-[5-(Methyl{4-[(RS)-(4,4,5,5,5-pentafluoropentyl)sulphinyl]butyl}amino)pentyl]-8-phenyl-6,7-dihydro-5H-benzo[7]annulen-3-ol] | 31

Results, then the compound that gave them:

Row | IC50 [nM] | SMILES
10 | 3 | CN(CCCCCC1=C(c2cccc(O)c2)CCCc2cc(O)ccc21)CCC[S+]([O-])CCCC(F)(F)C(F)(F)F (racemic) [Example 4, 8-(3-Hydroxyphenyl)-9-[5-(methyl{3-[(RS)-(4,4,5,5,5-pentafluoropentyl)sulphinyl]propyl}amino)pentyl]-6,7-dihydro-5H-benzo[7]annulen-3-ol]
11 | 2 | CN(CCCCCCC1=C(c2cccc(O)c2)CCCc2cc(O)ccc21)CCCC[S+]([O-])CCCC(F)(F)C(F)(F)F (racemic) [Example 14, 8-(3-Hydroxyphenyl)-9-[6-(methyl{4-[(RS)-(4,4,5,5,5-pentafluoropentyl)sulphinyl]butyl}amino)hexyl]-6,7-dihydro-5H-benzo[7]annulen-3-ol]
12 | 1 | CN(CCCCCCC1=C(c2ccc(O)cc2)CCCc2cc(O)ccc21)CCC[S+]([O-])CCCC(F)(F)C(F)(F)F (racemic) [Example 26, 8-(4-Hydroxyphenyl)-9-[6-(methyl{3-[(RS)-(4,4,5,5,5-pentafluoropentyl)sulphinyl]propyl}amino)hexyl]-6,7-dihydro-5H-benzo[7]annulen-3-ol]
13 | 39 | O=S(=O)(CCCN(CCCO)CCCCCCC1=C(c2ccccc2)CCCc2cc(O)ccc21)CCC(F)(F)F [Example 81, 9-{6-[(3-Hydroxypropyl){3-[(3,3,3-trifluoropropyl)sulphonyl]propyl}amino]hexyl}-8-phenyl-6,7-dihydro-5H-benzo[7]annulen-3-ol]
14 | 1 | CN(CCCCCCC1=C(c2cccc(O)c2)CCCc2cc(O)ccc21)CCCCS(=O)(=O)CCCC(F)(F)F [Example 52, 8-(3-Hydroxyphenyl)-9-[6-(methyl{4-[(4,4,4-trifluorobutyl)sulphonyl]butyl}amino)hexyl]-6,7-dihydro-5H-benzo[7]annulen-3-ol]
15 | 1 | O=S(=O)(CCCN(CCCO)CCCCCCC1=C(c2cccc(O)c2)CCCc2cc(O)ccc21)CCCC(F)(F)C(F)(F)F [Example 92, 8-(3-Hydroxyphenyl)-9-{6-[(3-hydroxypropyl){3-[(4,4,5,5,5-mpentafluoropentyl)sulphonyl]propyl}amino]hexyl}-6,7-dihydro-5H-benzo[7]annulen-3-ol]
16 | 6 | CCN(CCCCCCC1=C(c2cccc(O)c2)CCCc2cc(O)ccc21)CCCS(=O)(=O)CCC(F)(F)F [Example 65, 9-[6-(Ethyl{3-[(3,3,3-trifluoropropyl)sulphonyl]propyl}amino)hexyl]-8-(3-hydroxyphenyl)-6,7-dihydro-5H-benzo[7]annulen-3-ol]
17 | 5 | [O-][S+](CCCN(CCCO)CCCCCCC1=C(c2cccc(O)c2)CCCc2cc(O)ccc21)CCC(F)(F)F (racemic) [Example 96, 8-(3-Hydroxyphenyl)-9-{6-[(3-hydroxypropyl){3-[(RS)-(3,3,3-trifluoropropyl)sulphinyl]propyl}amino]hexyl}-6,7-dihydro-5H-benzo[7]annulen-3-ol]
18 | 23 | CCN(CCCCCCC1=C(c2ccccc2)CCCc2cc(O)ccc21)CCC[S+]([O-])CCC(F)(F)F (racemic) [Example 76, 9-[6-(Ethyl{3-[(RS)-(3,3,3-trifluoropropyl)sulphinyl]propyl}amino)hexyl]-8-phenyl-6,7-dihydro-5H-benzo[7]annulen-3-ol]
19 | 2 | CN(CCCCCCC1=C(c2cccc(O)c2)CCCc2cc(O)ccc21)CCCCS(=O)(=O)CCC(F)(F)F [Example 113, 8-(3-Hydroxyphenyl)-9-[6-(methyl{4-[(3,3,3-trifluoropropyl)sulphonyl]butyl}amino)hexyl]-6,7-dihydro-5H-benzo[7]annulen-3-ol]
20 | 3 | CC(C)(O)CN(CCCCCCC1=C(c2ccccc2)CCCc2cc(O)ccc21)CCC[S+]([O-])CCCC(F)(F)C(F)(F)F (racemic) [Example 74, 9-{6-[(2-Hydroxy-2-methylpropyl){3-[(RS)-(4,4,5,5,5-pentafluoropentyl)sulphinyl]propyl}amino]hexyl}-8-phenyl-6,7-dihydro-5H-benzo[7]annulen-3-ol]
